Measurements as given in article PMC6567057, “Pharmacokinetic, metabolic stability, plasma protein binding and CYP450s inhibition/induction assessment studies of N-(2-pyridylmethyl)-2-hydroxiymethyl-1-pyrrolidinyl-4-(3-chloro-4-methoxy-benzylamino)-5-pyrimidine-carboxamide as potential type 5 phosphodiesterase inhibitors” (Animal Cells and Systems, 2019).
Like-named read-outs stand apart in the source and are kept apart here.

Experiments:
[1] = Stability in plasma, 6 h incubation at 37°C (rat); format: in vitro ADME; conditions: Sprague-Dawley
Method: (§1) The phosphate buffer (100 mM) and sodium hydroxide solution (1.0 M) were prepared in deionized water. […] PPB was determined by equilibrium dialysis method. An aliquot (150 μL) of NHPPC spiked plasma and phosphate buffer (pH 7.4) was added into the donor side and the receiver side of each designated well. The plate was covered with adhesive sealing film to prevent evaporation and placed in a water-bath shaker kept at 37°C for 6 h with a rate of 50 rpm. […] At the end of 6 h, aliquots were taken from each side of each well (n = 3) and kept in a −20°C freezer prior to analysis. The stability, device recovery and PPB were calculated using the following equations: Remaining at 6 h (%)=C6h/C0h×100%, Device recovery (%)=CDonor+CReceiver/C6h×100%, PPB (%)=CDonor−CReceiver/CDonor×100%.

[2] = Stability in plasma, 6 h incubation at 37°C (human); format: in vitro ADME
Method: as §1

[3] = Plasma protein binding by equilibrium dialysis (rat); format: in vitro ADME, Sprague–Dawley rat; conditions: Sprague-Dawley
Method: as §1

rat plasma proteins = test: as above; format: in vitro ADME, Sprague–Dawley rat; conditions: rat plasma, mean of 0.2 and 1 µM
Method: as §1

[4] = Plasma protein binding by equilibrium dialysis (human); format: in vitro ADME
Method: as §1

human plasma proteins = test: as above; format: in vitro ADME; conditions: human plasma, mean of 0.2 and 1 µM
Method: as §1

[5] = In vitro metabolic stability in human liver microsomes; format: in vitro ADME; conditions: for remaining at 1 h, 1 µM: liver microsomes, pH 7.4, human liver microsomes, 60 min, read-out: percent remaining
Method: The phosphate buffer (pH 7.4, 100 mM) and (300 mM) were prepared in deionized water. NADP and IA were dissolved in phosphate buffer and MgCl2 solution and then added 20 μL IDH (18 units/mg protein) and mixed. NHPPC (1 mM) and positive control drug were prepared by dilution using DMSO and then the NHPPC and positive control drug working solution (50 μM) were obtained by dilution using methanol: H2O (1:1, v/v) mixture. Pooled human, rat and dog liver microsomes were added to phosphate buffer pH7.4 to a concentration 20 mg/mL. NHPPC was incubated with liver microsomes. The incubation solution of the final reaction conditions contained 50 mM potassium phosphate buffer (pH 7.4), 0.5 mg protein/mL microsomes, 3 mM MgCl2, 2 mM NADPH and 1 μM NHPPC or positive control drug in a final volume of 100 μL. In sample and positive control groups, NADPH was added into the incubation solutions. In the negative control group, water (the replacement of NADPH) was added into the incubation solutions. Samples were incubated aerobically in a shaking water bath at 37°C and the reaction was terminated by adding 300 μL of ice cold acetonitrile (contain 100 ng/mL IS) at different interval 0, 5, 10, 20, 30 and 60 min. While positive control and negative control were incubated aerobically in a shaking water bath at 37°C for 0 and 60 min, respectively. NHPPC and control concentrations were determined by LC-MS/MS at each time point (n = 3). Calculation of t1/2 and CLint was performed by using following equations, where K is the elimination rate constant (min^−1) and QH is hepatic blood flow (mL/min/kg). t1/2=0.693/KCLint,in vitro=VD×KVD=Volume of reaction mixture(mL)/mg of protein per reation.
Hepatic intrinsic clearance was estimated by using the scaling factors and calculated by using the following equation (Lave et al. [1997]). CLint,in vivo=CLint×mg microsomal protein per liver×g liver per kg body weight, Cint,H=CLint,in vivo×QH/CLint,in vivo+QH,EH=CLint,H/QH.

[6] = In vivo pharmacokinetic study in rats; parameters: species or system male Sprague–Dawley rats; conditions: rat; for MRT inf: read-out: MRT0-∞
Method: For the iv experiment, male SD rats (n = 3) were given a single dose of NHPPC (1 mg/kg) over 1 min by dorsal venous arch of foot. Approximately 200 µL blood samples were collected at 5, 15, 30 min and 1, 2, 4, 6, 8 and 24 h post-dose via tail vein into heparinized (coated with 0.1% heparin in saline) tubes. For the oral experiments, the male rats (n = 3) were given a single dose of 2 mg/kg. Then the blood samples were collected at 10, 30 min and 1, 2, 4, 6, 8 and 24 h post-dose. Plasma was obtained after centrifugation at 8000 rpm for 6 min (4°C) within 10 min of blood-drawing and stored at –70°C until they were analyzed.
Data analysis including analyte/IS was acquired using Analyst version 1.6.1 software (AB SCIEX). All pharmacokinetic parameters (for example: K10, AUC0–t, AUC0-∞, Cmax, Tmax, t1/2, CL, Vss, MRT0–∞, etc.) were analyzed based on a non-compartmental model and using Pharsight WinNonlin version 6.3 (St. Louis, USA). The area under the concentration time curve (AUC0–t and AUC0–∞) was calculated by linear trapezoidal rule. The natural logarithms (Ln) of the fraction remaining against incubation times (min) was plotted and the first-order rate constant of turnover is determined by a linear regression model. The final results (for example: the mean, standard deviation, the remaining, device recovery, ke, bioavailability, etc.) were electronically exported into Excel 7.0 (Redmond, USA) for data processing and formatting.

[7] = 0.2 µM, n = 3, read-out: Mean drug remaining %
[8] = 1 µM, n = 3, read-out: Mean drug remaining %
[9] = mean of 0.2 and 1 µM, read-out: Mean drug remaining %
[10] = male, Sprague-Dawley, plasma, IV 1 mg/kg
[11] = male, Sprague-Dawley, plasma, PO 2 mg/kg

For COc1ccc(CNc2nc(N3CCC[C@H]3CO)ncc2C(=O)NCc2ccccn2)cc1Cl [NHPPC, N-(2-pyridylmethyl)-2-hydroxiymethyl-1-pyrrolidinyl-4-(3-chloro-4-methoxy-benzylamino)-5-pyrimidine-carboxamide], which remaining at 6 h, 0.2 µM [1, 7] is on record?
Its remaining at 6 h, 0.2 µM is 100 ± 1.93%.

And the remaining at 6 h, 1 µM [1, 8]?
Its remaining at 6 h, 1 µM is 102 ± 1.26%.

What about the remaining at 6 h [1, 9] of the same compound?
The remaining at 6 h was 101 ± 1.01%.

And the remaining at 6 h, 0.2 µM [2, 7]?
Its remaining at 6 h, 0.2 µM is 99.8 ± 1.37%.

And the remaining at 6 h, 1 µM [2, 8]?
The remaining at 6 h, 1 µM was 102 ± 1.5%.

And the remaining at 6 h [2, 9]?
The remaining at 6 h was 101 ± 1.23%.

And the recovery at 6 h, 0.2 μM ([3]; pH 7.4, rat plasma, equilibrium dialysis, n = 3, read-out: Mean device recovery %)?
The recovery at 6 h, 0.2 μM was 98.6 ± 0.13%.

And the fraction unbound at 6 h, 0.2 µM ([3]; rat, plasma, pH 7.4, rat plasma, 0.2 µM, equilibrium dialysis 6 h, read-out: Mean PPB % (converted))?
Its fraction unbound at 6 h, 0.2 µM is 0.043.

And the fraction unbound at 6 h, 1 µM ([3]; rat, plasma, pH 7.4, rat plasma, 1 µM, equilibrium dialysis 6 h, read-out: Mean PPB % (converted))?
Its fraction unbound at 6 h, 1 µM is 0.033.

What about the fraction unbound at 6 h ([3]; rat, plasma, pH 7.4, rat plasma, mean of 0.2 and 1 µM, read-out: Mean PPB %) of the same compound?
The fraction unbound at 6 h was less than 0.05.

What about the “Mean PPB %” value (rat plasma proteins) of the same compound?
The value was 96.2 ± 0.18%.

And the fraction unbound at 6 h, 0.2 µM ([4]; human, plasma, pH 7.4, human plasma, 0.2 µM, equilibrium dialysis 6 h, read-out: Mean PPB % (converted))?
Its fraction unbound at 6 h, 0.2 µM is 0.007.

And the fraction unbound at 6 h, 1 µM ([4]; human, plasma, pH 7.4, human plasma, 1 µM, equilibrium dialysis 6 h, read-out: Mean PPB % (converted))?
Its fraction unbound at 6 h, 1 µM is 0.005.

What about the recovery at 6 h, 0.2 μM ([4]; pH 7.4, human plasma, equilibrium dialysis, n = 3, read-out: Mean device recovery %) of the same compound?
The recovery at 6 h, 0.2 μM was 101.2 ± 0.02%.

What about the “Mean PPB %” value (human plasma proteins) of the same compound?
The value was 99.4 ± 0.13%.

What about the remaining at 1 h, 1 µM ([5]; human, in the presence of NADPH, 1 μM) of the same compound?
Its remaining at 1 h, 1 µM is 42%.

What about the remaining at 1 h, 1 µM ([5]; human, without NADPH regenerating system) of the same compound?
Its remaining at 1 h, 1 µM is 99.4%.

And the ranking for clearance ([5]; human, ranking criteria of Houston 1994, Kerns and Di 2008)?
The ranking for clearance was “middle clearance”.

And the CLH ([5]; human, scaled from liver microsomes)?
The CLH was 9.80 mL/min/kg.

What about the half-life at 1 µM ([5]; liver microsomes (pooled), pH 7.4, human liver microsomes) of the same compound?
Its half-life at 1 µM is 46.2 min.

And the microsomal CLint at 1 µM ([5]; liver microsomes (pooled), pH 7.4, human liver microsomes, read-out: CLint, ivtro)?
Its microsomal CLint at 1 µM is 21.4 µL/min/mg.

What about the k el at 1 µM ([5]; liver microsomes (pooled), pH 7.4, human liver microsomes, read-out: Ke (converted)) of the same compound?
The k el at 1 µM was 0.00025 s⁻¹.

What about the AUC(0-inf) [6, 10] of the same compound?
The AUC(0-inf) was 866 ± 201 ng·h/mL.

What about the AUC(0-t) [6, 10] of the same compound?
Its AUC(0-t) is 847 ± 195 ng·h/mL.

And the clearance [6, 10]?
Its clearance is 19.8 mL/min/kg.

What about the half-life [6, 10] of the same compound?
Its half-life is 273 ± 6.6 min.

What about the MRT inf [6, 10] of the same compound?
Its MRT inf is 5.5 ± 0.36 h.

What about the Vd ([6]; male, Sprague-Dawley, plasma, IV 1 mg/kg, read-out: Vss) of the same compound?
The Vd was 6.5 ± 1 L/kg.

And the AUC(0-inf) [6, 11]?
The AUC(0-inf) was 593 ± 137 ng·h/mL.

And the AUC(0-t) [6, 11]?
Its AUC(0-t) is 583 ± 135 ng·h/mL.

What about the Cmax [6, 11] of the same compound?
The Cmax was 52.6 ± 12.9 ng/mL.

What about the Tmax [6, 11] of the same compound?
The Tmax was 6 h.

And the half-life [6, 11]?
The half-life was 241 ± 23.4 min.

What about the MRT inf [6, 11] of the same compound?
Its MRT inf is 7.8 ± 0.79 h.

And the K10 ([6]; IV 1 mg/kg)?
Its K10 is 0.15 ± 0.00 h⁻¹.

And the K10 ([6]; PO 2 mg/kg)?
Its K10 is 0.17 ± 0.02 h⁻¹.
